These results are taken from patent US11952362B2, “Compositions and methods for treating epigenetic disease” (The Regents of the University of California, priority 2018, dated 2024).

Data set [1] can be described thus: Water solubility of MJK compounds. It counts as physicochemical. From the text: Solubility of MJK compounds: The development of an oral formulation for patients with auto-immune diseases, including Crohn's Disease, is preferential and less expensive, avoiding the need of hospitalization in comparison to the intracolonic (enema) administration. Thus, the water solubility and physical properties of the MJK compounds were examined. […] MJK-008 is the highest soluble MJK compound.

In the next data set the test system is TNBS colitis. The data set can be described thus: TNBS colitis in mice. It counts as in vivo. The conditions noted are these: i.c. administration, 50 mg/kg daily for 5 days, day 4, vs vehicle-treated mice. As to the method:
Male C57BL/6J mice 8-10 weeks old were purchased from The Jackson Laboratory (Sacramento, CA, USA). Mice were housed 4 per cage, maintained on a 12:12 hour light-dark cycle and given access to food and water ad libitum. Following an acclimatization period of 3 to 5 days, trinitrobenzene sulfonic acid (TNBS, Millipore Sigma, St. Louis, MO, USA) colitis was induced by intracolonic (i.c.) injection of 0.05 ml TNBS solution (5 mg in 40% ethanol) via a polyethylene cannula (BD Intramedic PE-20 tubing, Thermo Fisher Scientific, Santa Clara, CA, USA) inserted 3.5 cm from the anal verge under isoflurane anesthesia (4% in O2 induction, 2.5-3% maintenance). Control mice received an injection of 40% ethanol (0.05 ml, i.c.). To test the effectiveness of the HDAC analogs, mice received a daily injection (0.1 ml, i.c.) of a selective HDAC class II inhibitor analog (50 mg/kg MJK001-013) or vehicle (5% dimethyl sulfoxide, Millipore Sigma) beginning one day prior to TNBS colitis induction (day −1) for a period of 5 days. Separate groups of mice received HDAC inhibitors or vehicle administered by daily oral gavage (50 mg/kg, 0.25 ml, p.o.). All analogs tested were first dissolved in dimethyl sulfoxide (DMSO) with rapid vortexing and subsequent dilution to 5% in sterile phosphate buffered saline (PBS; Gibco, Thermo Fisher Scientific). Vehicle contained 5% DMSO in sterile PBS. Prior to use, all solids were stored in amber (light-blocking) storage vials at 4° C. On the first day of administration, stock solutions were prepared, aliquoted and stored at −20° C. for daily use. Upon thawing, each aliquot was vortexed prior to intracolonic injection (via a polyethylene cannula) or oral gavage (20 ga×38 mm, Instech, Thermo Fisher Scientific). Following all in vivo experiments, animals were euthanized on day 4 by CO2 inhalation and cervical dislocation and the distal colons removed for further study.
Disease severity was assessed by weight loss and measurement of colon length and determination of clinical and histological damage scores on day 4 of the protocol. Briefly, clinical scores were calculated on a scale of 0-3 for degree of weight loss, bleeding, stool consistency and presence of rectal prolapse. Sections of colon (5 μm) fixed in 10% formalin, paraffin-embedded and stained with hematoxylin and eosin (H&E) were used for histological scoring using an AxioImager. Z1 microscope equipped with AxioVision software version 4.6 (Zeiss, Jena, Germany). Scoring was performed by two independent investigators blinded to the treatment conditions and resulting scores averaged. Scores were assigned based on the degree of crypt damage (0-4), polymorphonuclear neutrophil (PMN) infiltrate (0-3), erosion (0-3), and edema (0-3).
Statistical analyses were performed using GraphPad Prism (Version 5.0a; GraphPad Software, La Jolla, CA, USA). Differences were determined by unpaired t-test, 1-way analysis of variance, or a 2-way analysis of variance with Tukey's post-test. A p value <0.05 was considered to be statistically significant. Data presented are means±SEM for n animals.
Novel chemical HDAC inhibitors were developed aiming to target specific isoforms of the HDAC Class IIA members. Overall, as shown above, compounds have been synthesized, named MJK-001, -002, -003, -004, -005, -006, -007, -008, -009, -010, -011, -012 & -013. The effect of selective HDAC class IIA isoform inhibition during development of colitis in mice in vivo during TNBS administration was assessed. This mouse model is known to recapitulate many features of human Crohn's Disease. Mice received either an intracolonic (i.c.) injection or oral delivery (p.o.) of the MJK compounds once daily for a period of 5 days and health status, weight loss, and disease activity were monitored. Mice (male C57BL/6J, 8-10 wks old) are weighed and monitored daily. On the final day, blood, feces, and colonic samples for RNA, protein and histology are collected for downstream analysis. […]

Where [2] appears, read: listed as MJK-005, hydrochloride, 50 mg/kg.
The mark [3] stands for this setting: listed as MJK-013, hydrochloride, 50 mg/kg.

Where a name gives a salt, the structure may show the parent alone.

`COc1cccc(C(=O)/C=C/c2ccc(/C=C/C(=O)NO)n2C)c1` [MJK002, (E)-N-hydroxy-3-(5-((E)-3-(3-methoxyphenyl)-3-oxoprop-1-en-1-yl)-1-methyl-1H-pyrrol-2-yl)acrylamide]: the Solubility score result in data set [1] is “more soluble than MJK-001 and MJK-003”. In addition, in the data set with TNBS colitis (50 mg/kg), the clinical score result is listed as “♦♦♦”; the colon length result is listed as “♦”; the histological score result is “did not yield significant differences and ns”. Besides, in the data set with TNBS colitis (listed as MJK-002, 50 mg/kg), the clinical score entry is listed as “statistical significance in the reduction of the clinical score” and the colon length entry is on record as “increase of colon length”.
For the molecule `Cn1c(/C=C/C(=O)NO)ccc1/C=C/C(=O)c1cccc(Cl)c1` [MJK003, (E)-3-(5-((E)-3-(3-chlorophenyl)-3-oxoprop-1-en-1-yl)-1-methyl-1H-pyrrol-2-yl)-N-hydrox-yacrylamide], in the data set with TNBS colitis (50 mg/kg), the clinical score result is given as “♦♦”; the colon length entry was “♦”; the histological score entry is “did not yield significant differences and ns”. In the data set with TNBS colitis (listed as MJK-003, 50 mg/kg), the clinical score entry is recorded as “statistical significance in the reduction of the clinical score” and the colon length entry is “increase of colon length”.
Take `Cl.Cn1c(/C=C/C(=O)NO)ccc1/C=C/C(=O)c1ccsc1` [MJK005, (E)-N-hydroxy-3-(1-methyl-5-((E)-3-oxo-3-(thiophen-3-yl)prop-1-en-1-yl)-1H-pyrrol-2-yl)acrylamide hydrochloride]: the clinical score result is on record as “♦♦♦” in the data set on TNBS colitis (hydrochloride, 50 mg/kg) and “reduction in clinical scoring” in the data set on TNBS colitis (setting [2]). In addition, the colon length result in the data set with TNBS colitis (hydrochloride, 50 mg/kg) is “ns”; in the data set on TNBS colitis (setting [2]) it was “did not alter colon length”.
Regarding `Cn1cccc1C(=O)/C=C/c1ccc(/C=C/C(=O)NO)n1C` [MJK007, (E)-N-Hydroxy-3-(1-methyl-5-((E)-3-(1-methyl-1H-pyrrol-2-yl)-3-oxoprop-1-en-1-yl)-1H-pyrrol-2-yl)acrylamide], the clinical score entry is given as “ns” in the data set on TNBS colitis (50 mg/kg) and “no significant differences” in the data set with TNBS colitis (listed as MJK-007, 50 mg/kg). The colon length entry in the data set with TNBS colitis (50 mg/kg) is listed as “ns”; with TNBS colitis (listed as MJK-007, 50 mg/kg) it was “no significant differences”.
Regarding `Cn1c(/C=C/C(=O)NO)ccc1/C=C/C(=O)c1cccnc1` [MJK009, (E)-N-Hydroxy-3-(1-methyl-5-((E)-3-oxo-3-(pyridin-3-yl)prop-1-en-1-yl)-1H-pyrrol-2-yl)ac-rylamid p-toluenesulfonic acid salt], the Solubility score result in data set [1] is “highest solubility”. In addition, in the data set on TNBS colitis (50 mg/kg), the clinical score entry is on record as “♦” and the colon length entry is recorded as “ns”. Further, in the data set with TNBS colitis (listed as MJK-009, 50 mg/kg), the clinical score entry is recorded as “reduction in clinical scoring” and the colon length result is on record as “did not alter colon length”.
As for `Cn1c(/C=C/C(=O)NO)ccc1/C=C/C(=O)c1ccccn1` [MJK010, (E)-N-Hydroxy-3-(1-methyl-5-((E)-3-oxo-3-(pyridin-2-yl)prop-1-en-1-yl)-1H-pyrrol-2-yl)acrylamide], in the data set on TNBS colitis (50 mg/kg), the clinical score result was “ns” and the colon length result is “ns”. In the data set on TNBS colitis (listed as MJK-010, 50 mg/kg), the clinical score entry is listed as “no significant differences” and the colon length entry is listed as “no significant differences”.
For the molecule `Cn1c(/C=C/C(=O)NO)ccc1/C=C/C(=O)c1ccncc1` [MJK011, (E)-N-hydroxy-3-(1-methyl-5-((E)-3-oxo-3-(pyridin-4-yl)prop-1-en-1-yl)-1H-pyrrol-2-yl)ac-rylamide], the Solubility score entry in data set [1] is listed as “worst solubility”. Besides, in the data set with TNBS colitis (50 mg/kg), the clinical score entry was “♦♦♦” and the colon length result is listed as “ns”. Further, in the data set on TNBS colitis (listed as MJK-011, 50 mg/kg), the clinical score result is on record as “reduction in clinical scoring” and the colon length result is given as “did not alter colon length”.
On to `Cn1c(/C=C/C(=O)NO)ccc1/C=C/C(=O)c1ccco1` [MJK012, (E)-3-(5-((E)-3-(Furan-2-yl)-3-oxoprop-1-en-1-yl)-1-methyl-1H-pyrrol-2-yl)-N-hydroxyacrylamide], for which, in the data set on TNBS colitis (50 mg/kg), the clinical score result is listed as “ns” and the colon length result is “ns”. In addition, in the data set on TNBS colitis (listed as MJK-012, 50 mg/kg), the clinical score entry was “no significant differences” and the colon length entry is recorded as “no significant differences”.
With `Cl.Cn1c(/C=C/C(=O)NO)ccc1/C=C/C(=O)c1cnccn1` [MJK013, (E)-N-Hydroxy-3-(1-methyl-5-((E)-3-oxo-3-(pyrazin-2-yl)prop-1-en-1-yl)-1H-pyrrol-2-yl)acrylamide hydrochloride], the clinical score entry was “ns” with TNBS colitis (hydrochloride, 50 mg/kg) and “no significant differences” with TNBS colitis (setting [3]). In addition, the colon length entry with TNBS colitis (hydrochloride, 50 mg/kg) is “ns”; in the data set on TNBS colitis (setting [3]), “no significant differences”.
